In US4638088A, “Pesticidal biphenylyloxy and biphenylylalkoxy aryl acyl urea compounds” (Union Carbide Corporation, priority 1984, dated 1987):

Assays:
southern armyworm = assay: Southern Armyworm Leaf Spray Bait Test; type: in vivo; settings: Spodoptera eridania, 120 h; for mortality at 500 ppm: read-out: Activity at 500 ppm, SAW, 500 ppm, Southern Armyworm larvae, up to five days; for mortality at 2 ppm: read-out: Percent Control (after 5 days), Application Rate 2 ppm; for mortality at 8 ppm: read-out: Percent Control (after 5 days), Application Rate 8 ppm; for mortality at 25 ppm: read-out: Percent Control (after 5 days), Application Rate 25 ppm; for mortality at 100 ppm: read-out: Percent Control (after 5 days), Application Rate 100 ppm; for mortality at 125 ppm: read-out: Percent Control (after 5 days), Application Rate 125 ppm; for mortality at 4 ppm: read-out: Percent Control (after 5 days), Application Rate 4 ppm
Procedure: (§1) Suspension of the test compounds were prepared by dissolving one gram of compound in 50 milliliters of acetone in which had been dissolved 0.1 gram (10 percent of the weight of compound) of an alkylphenoxy polyethoxyethanol surfactant, as an emulsifying or dispersing agent. The resulting solution was mixed into 150 milliliters of water to give roughly 200 milliliters of a suspension containing the compound in finely divided form. The thus-prepared stock suspension contained 0.5 percent by weight of compound. The test concentrations in parts per million by weight employed in the tests described hereinbelow were obtained by appropriate dilutions of the stock suspension with water. Certain of the test compounds were also prepared by dissolving 375 mg of compound in 7.5 ml of dimethylformamide. Fifteen milliliters of acetone containing 37.5 mg (10 percent of the weight of test compound) of an alkylphenoxy polyethoxyethanol surfactant, as a wetting/emulsifying/dispersing agent was added to the dimethylformamide solution. Fifty-two and one-half milliliters of water wasa mixed into the dimethylformamide-acetone mixture to give roughly 75 ml of a suspension containing the compound in solution or in finely divided form. The thus prepared stock suspension contained 0.5 percent by weight of compound. The test procedures were as follows:
Larvae of the southern armyworm (Spodoptera eridania, (Cram.), reared on Tendergreen bean plants at a temperature of 80°±5° F. and a relative humidity of 50±5 percent, constituted the test insects.
Potted Tendergreen bean plants of standarad height and age were placed on a revolving turntable and sprayed with 100-110 milliliters of test compound formulation by use of a DeVilbiss spray gun set at 40 psig air pressure. This application, which lasted 25 seconds, was sufficient to wet plants to run-off. As a control, 100-110 milliliters of a water-acetone-emulsifier solution containing no test compound was also sprayed on infested plants. When dry, the paired leaves were separated and each one was placed in a 9 centimeter Petri dish lined with moistened filter paper. Five randomly selected larvae were introduced into each dish and the dishes were closed. The closed dishes were labeled and held at 80°-85° F. for up to five days. Although the larvae could easily consume the whole leaf within twenty-four hours, no more food was added. Larvae which were unable to move the length of the body, even upon stimulation by prodding, were considered dead. Percent mortality was recorded for various concentration levels.

Mexican bean beetle = assay: Mexican Bean Beetle Leaf Spray Test; type: in vivo, Epilachna varivestic; settings: Mexican Bean Beetle larvae, five days; for mortality at 500 ppm: Epilachna varivestis, 120 h, read-out: Activity at 500 ppm, MBB; for Activity at 500 ppm, MBB: 7200 min
Procedure: as §1
Fourth instar larvae of the Mexican bean beetle (Epilachna varivestic, Muls.), reared on Tendergreen bean plants at a temperature of 80°±5° F. and 50±5 percent relative humidity, were the test insects. For certain of the tests second instar larvae (weighting about 6 mg) of the Mexican bean beetle (Epilachna varaivestis, Muls.), reared on Sieva Pole lime bean plants at a temperature of 80°±5° F. and 50±5 percent relative humidity, were the test insects.
The test compounds were formulated by diluting the stock suspension with water to give a suspension containing 500 parts of test compound per million parts of final formulation. Potted Tendergreen bean plants of standard height and age were placed on a revolving turntable and sprayed with 100-110 milliliters of test compound formulation by use of a DeVilbiss spray gun set at 40 psig air pressure. This application, which lasted 25 seconds, was sufficient to wet plants to run-off. As a control, 100-110 milliliters of a water-acetone-emulsifier solution containing no test compound was also sprayed on infested plants. When dry, the paired leaves were separated and each was placed in a 9 centimeter Petri dish lined with moistened filter paper. Five randomly selected larvae were introduced into each dish, and the dishes were closed. The closed dishes were labeled and held at a temperature of 80°±5° F., for five days. Although the larvae could easily consume the leaf within 24 to 48 hours, no more food was added. Larvae which were unable to move the length of the body, even upon stimulation, were considered dead. Percent mortality was recorded for various concentration levels.

In the case of `Cc1ccccc1C(=O)NC(=S)Nc1cc(C)c(Oc2ccccc2-c2ccccc2)c(Cl)c1C` [Example 9], the mortality at 500 ppm (southern armyworm) is reported as 71 to 100% and the mortality at 500 ppm (Mexican bean beetle) is reported as 71 to 100%.
Work on `Cc1cc(NC(=O)NC(=O)c2c(F)cccc2F)c(C)c(Cl)c1Oc1ccc(Br)cc1-c1ccccc1` [Example 25] yielded a mortality at 500 ppm (southern armyworm) of 71 to 100% and a mortality at 500 ppm (Mexican bean beetle) of 71 to 100%.
Compound `O=C(NC(=O)c1ccccc1Cl)Nc1cc(Cl)c(Oc2ccccc2-c2ccccc2)c(Cl)c1` [Example 32] has a mortality at 500 ppm (southern armyworm) of 71 to 100% and a mortality at 500 ppm (Mexican bean beetle) of 71 to 100%.
In the case of `Cc1cc(Oc2ccccc2-c2ccccc2)c(Cl)cc1NC(=O)NC(=O)c1ccccc1C(F)(F)F` [Example 27], the mortality at 500 ppm (southern armyworm) is reported as 0 to 30% and the mortality at 500 ppm (Mexican bean beetle) is reported as 0 to 30%.
For `Cc1cc(NC(=O)NC(=O)c2ccccc2F)c(C)c(Cl)c1Oc1ccc(Cl)cc1-c1ccccc1` [Example 18], the mortality at 500 ppm (southern armyworm) was 71 to 100% and the mortality at 500 ppm (Mexican bean beetle) was 71 to 100%.
`Cc1cc(NC(=O)NC(=O)c2c(F)cccc2F)c(C)c(Cl)c1Oc1ccccc1-c1ccccc1` [Example 33] was tested, and the mortality at 2 ppm (southern armyworm) was 100% and the mortality at 8 ppm (southern armyworm) was 100%.
With `Cc1cc(NC(=O)NC(=O)c2c(F)cccc2F)c(C)c(Cl)c1Oc1ccc(-c2ccccc2)cc1` [Example 11] the mortality at 500 ppm (southern armyworm) was 71 to 100% and the mortality at 500 ppm (Mexican bean beetle) was 71 to 100%.
Work on `Cc1cc(NC(=S)NC(=O)c2ccccc2Cl)c(C)c(Cl)c1Oc1ccc(-c2ccccc2)cc1` [Example 12] yielded a mortality at 500 ppm (southern armyworm) of 0 to 30% and a mortality at 500 ppm (Mexican bean beetle) of 71 to 100%.
With `Cc1cc(NC(=S)NC(=O)c2ccccc2F)c(C)c(Cl)c1Oc1ccccc1-c1ccccc1` [Example 30] the “Activity at 500 ppm, MBB” value (Mexican bean beetle) was “C (0- 30% Kill)”.
`O=C(NC(=O)c1ccccc1Cl)Nc1ccc(Oc2ccc(Oc3ccccc3)cc2)cc1` [E, reference compound] gave a mortality at 25 ppm (southern armyworm) of 0% and a mortality at 100 ppm (southern armyworm) of 0%.
`Cc1ccc(Oc2ccc(NC(=O)NC(=O)c3ccccc3Cl)cc2Cl)c(C)c1` [Comparative Example B, reference compound] showed a mortality at 8 ppm (southern armyworm) of 20%, a mortality at 21 ppm (southern armyworm; read-out: Percent Control (after 5 days), Application Rate 21 ppm) of 30% and a mortality at 125 ppm (southern armyworm) of 100%.
With `O=C(NC(=O)c1c(F)cccc1F)Nc1cc(Cl)c(Oc2ccccc2-c2ccccc2)c(Cl)c1` [Example 31] the mortality at 500 ppm (southern armyworm) was 71 to 100% and the mortality at 500 ppm (Mexican bean beetle) was 71 to 100%.
`O=C(NC(=O)c1c(F)cccc1F)Nc1ccc(Oc2ccc(Oc3ccccc3)cc2)cc1` [D, reference compound] showed a mortality at 25 ppm (southern armyworm) of 0% and a mortality at 100 ppm (southern armyworm) of 0%.
With `Cc1cc(NC(=S)NC(=O)c2ccccc2F)c(C)c(Cl)c1Oc1ccccc1-c1ccccc1` [Example 34] the mortality at 2 ppm (southern armyworm) was 100% and the mortality at 8 ppm (southern armyworm) was 100%.
For `Cc1cc(NC(=O)NC(=O)c2c(F)cccc2Cl)c(C)c(Cl)c1Oc1ccccc1-c1ccccc1` [Example 5], the mortality at 500 ppm (southern armyworm) was 71 to 100% and the mortality at 500 ppm (Mexican bean beetle) was 71 to 100%.
`O=C(NC(=O)c1c(F)cccc1F)Nc1cc(Cl)c(Oc2cccc3ccccc23)c(Cl)c1` [Comparative Example C, reference compound] gave a mortality at 8 ppm (southern armyworm) of 0%, a mortality at 31 ppm (southern armyworm; read-out: Percent Control (after 5 days), Application Rate 31 ppm) of 40% and a mortality at 125 ppm (southern armyworm) of 100%.
`O=C(NC(=O)c1cc(F)ccc1Cl)Nc1cc(Cl)c(Oc2cccc(-c3ccccc3)c2)c(Cl)c1` [Comparative Example G, reference compound] showed a mortality at 6.25 ppm (southern armyworm; read-out: Percent Control (after 5 days), Application Rate 6.25 ppm) of 0%, a mortality at 25 ppm (southern armyworm) of 0% and a mortality at 100 ppm (southern armyworm) of 0%.
With `Cc1cc(NC(=S)NC(=O)c2ccccc2F)c(C)c(Cl)c1Oc1ccccc1-c1ccccc1` [Example 8] the “Activity at 500 ppm, MBB” value (Mexican bean beetle) was “A (71- 100% Kill)”.
`O=C(NC(=O)c1ccc(F)cc1Cl)Nc1cc(Cl)c(Oc2ccc(-c3ccccc3)cc2)c(Cl)c1` [Comparative Example F, reference compound] was tested, and the mortality at 6.5 ppm (southern armyworm; read-out: Percent Control (after 5 days), Application Rate 6.5 ppm) was 0%, the mortality at 25 ppm (southern armyworm) was 0% and the mortality at 100 ppm (southern armyworm) was 0%.
In the case of `O=C(NC(=O)c1c(F)cccc1F)Nc1cc(Cl)c(OCc2ccccc2-c2ccccc2)c(Cl)c1` [Example 35], the mortality at 1 ppm (southern armyworm; read-out: Percent Control (after 5 days), Application Rate 1 ppm) is reported as 100% and the mortality at 4 ppm (southern armyworm) is reported as 100%.
Compound `Cc1cc(NC(=O)NC(=O)c2ccccc2Cl)c(C)c(Cl)c1Oc1ccc(S(=O)(=O)c2ccc(Cl)cc2)cc1` [Comparative Example H, reference compound] has a mortality at 2 ppm (southern armyworm) of 0%, a mortality at 4 ppm (southern armyworm) of 0% and a mortality at 8 ppm (southern armyworm) of 10%.
